Experimental data published in US20100255004A1, “RECEPTOR TYROSINE KINASE PROFILING” (Dana Farber Cancer Institute, priority 2007, published 2010).
Where a name gives a salt, the structure may show the parent alone.

Assays:
[1] = molecular target: T1, MET (Homo sapiens, UniProt P08581); assay: Immunoblot of P-MET in LN382 and LN18 cells; assay type: cell-based; set-up: endogenous in cells; host or cells: LN382 and LN18 glioma cells; conditions: 1 μM, 24 hours (FIG. 4F)
Experimental: A-E. The glioma cell lines LN18 (wt PTEN), SF767 (wt PTEN), LN382 (mut PTEN) and LNZ308 (mut PTEN) were incubated in 0.05% serum-containing medium cells and treated with 10 μM erlotinib (E or T), 10 μM SU11274 (S), and/or 10 μM imatinib (I or G) and immunoblotted as in FIG. 3. […] LN382 and LN18 cells were treated with 1 μM each RTK inhibitor for 24 hours, then immunoblotted with antibodies to P-PDGFRβ and P-MET.

[2] = tested on: PI3K signaling (p85α/GAB1 complex, P-AKT, P-S6); assay: GAB1 immunoprecipitation and immunoblots of P-AKT and P-S6 in U87MG-EGFR* cells; assay type: cell-based, human; conditions: U87MG-EGFR* cells (PTEN mutant), 10 μM each inhibitor (FIG. 3C)
Experimental: U87MG parental cells or cells constitutively expressing wt EGFR, the activating vIII deletion mutant (EGFR*) or the vIII mutant with an inactivating mutation in its kinase domain (EGFR*-KD) were immunoprecipitated with an antibody to the RTK/PI-3K adaptor protein, GAB1 (left panel), then immunoblots were probed with the indicated antibodies. […] Whole cell extracts (WCE) from the same cells were immunoblotted with the indicated antibodies. […] C. […] Bottom panel: Un-immunoprecipitated whole cell extracts were immunoblotted with the indicated antibodies. […] Error bars indicate SEM, n=4. […] U87MG-EGFR* cells were transfected with empty vector, HRASV12, myristoylated-AKT, or p110α-CAAX, then treated with 10 μM each of erlotinib (E), SU11274 (S), and imatinib (I) in 0.05% serum-containing medium for 72 hours prior to assaying cell viability.
We also immunoblotted whole cell extracts with antibodies against MAPK and phosphorylated versions of AKT, MAPK, and S6 (FIG. 3C, bottom panel):
Following 30 min incubation in lysis buffer at 4° C., lysates were cleared by centrifugation at 10 k 10 min 4° C., then protein concentrations were determined by BioRad DC Protein Assay. […] Co-immunoprecipitated proteins were detected with either mouse or rabbit TrueBlot HRP conjugated secondaries (eBioscience). • Antibody arrays.

[3] = molecular target: T1, MET; assay: RTK antibody array, phosphorylation of MET in U87MG-EGFR* cells; assay type: cell-based; set-up: endogenous in cells; conditions: 10 μM, RTK antibody array (FIG. 3B)
Experimental: Error bars indicate SEM, n=4.
Following 30 min incubation in lysis buffer at 4° C., lysates were cleared by centrifugation at 10 k 10 min 4° C., then protein concentrations were determined by BioRad DC Protein Assay. […] Tyrosine-phosphorylated proteins were visualized by separation on NuPAGE 3-8% Tris-Acetate gels (Invitrogen), blotted onto nitrocellulose, blocked with 3% Immunoblot Blocking Reagent (Upstate), then incubated with anti-phosphotyrosine antibody (4G10, Upstate). […] Co-immunoprecipitated proteins were detected with either mouse or rabbit TrueBlot HRP conjugated secondaries (eBioscience). • Antibody arrays. Cells were harvested as for immunoprecipitations above. Snap-frozen tumors were thawed in immunoprecipitation lysis buffer, homogenized by hand 50× with disposable 1.5 mL pestles, incubated 30 min 4° C. with inversion, homogenized 50×, then cleared by centrifugation at 10 k 10 min 4° C. Proteins were quantitated as above. RTK antibody arrays were purchased from R&D Systems (#ARY-001) and performed as recommended but with 2 mg protein lysate per array. • Soft agar colony formation.

[4] = tested on: PDGFR; assay: p-PDGFR in LNZ308 cells; assay type: cell-based, human
Text: We then correlated inhibition of PI3K activity with biological effects of various combinations of RTK inhibitor treatment regimens. […] Second, we are mindful of the limitation of detection sensitivity by current antibody array technology and that a particular RTK may not be represented or be activated at an undetectable but biologically-relevant level. As shown in FIG. 4C-E, combination inhibition of RTKs in LN382 and LNZ308, both PTEN mutant GBM lines, effectively extinguished PI3K activity.

[5] = molecular target: T2, PDGFRβ (Homo sapiens, UniProt P09619); assay: Immunoblot of P-PDGFRβ in LN382 and LN18 cells; assay type: cell-based; conditions: 1 μM, 24 hours (FIG. 4F)
T2 construct: endogenous in cells; host or cells: LN382 and LN18 glioma cells
T2 sequence (P09619 33-1106): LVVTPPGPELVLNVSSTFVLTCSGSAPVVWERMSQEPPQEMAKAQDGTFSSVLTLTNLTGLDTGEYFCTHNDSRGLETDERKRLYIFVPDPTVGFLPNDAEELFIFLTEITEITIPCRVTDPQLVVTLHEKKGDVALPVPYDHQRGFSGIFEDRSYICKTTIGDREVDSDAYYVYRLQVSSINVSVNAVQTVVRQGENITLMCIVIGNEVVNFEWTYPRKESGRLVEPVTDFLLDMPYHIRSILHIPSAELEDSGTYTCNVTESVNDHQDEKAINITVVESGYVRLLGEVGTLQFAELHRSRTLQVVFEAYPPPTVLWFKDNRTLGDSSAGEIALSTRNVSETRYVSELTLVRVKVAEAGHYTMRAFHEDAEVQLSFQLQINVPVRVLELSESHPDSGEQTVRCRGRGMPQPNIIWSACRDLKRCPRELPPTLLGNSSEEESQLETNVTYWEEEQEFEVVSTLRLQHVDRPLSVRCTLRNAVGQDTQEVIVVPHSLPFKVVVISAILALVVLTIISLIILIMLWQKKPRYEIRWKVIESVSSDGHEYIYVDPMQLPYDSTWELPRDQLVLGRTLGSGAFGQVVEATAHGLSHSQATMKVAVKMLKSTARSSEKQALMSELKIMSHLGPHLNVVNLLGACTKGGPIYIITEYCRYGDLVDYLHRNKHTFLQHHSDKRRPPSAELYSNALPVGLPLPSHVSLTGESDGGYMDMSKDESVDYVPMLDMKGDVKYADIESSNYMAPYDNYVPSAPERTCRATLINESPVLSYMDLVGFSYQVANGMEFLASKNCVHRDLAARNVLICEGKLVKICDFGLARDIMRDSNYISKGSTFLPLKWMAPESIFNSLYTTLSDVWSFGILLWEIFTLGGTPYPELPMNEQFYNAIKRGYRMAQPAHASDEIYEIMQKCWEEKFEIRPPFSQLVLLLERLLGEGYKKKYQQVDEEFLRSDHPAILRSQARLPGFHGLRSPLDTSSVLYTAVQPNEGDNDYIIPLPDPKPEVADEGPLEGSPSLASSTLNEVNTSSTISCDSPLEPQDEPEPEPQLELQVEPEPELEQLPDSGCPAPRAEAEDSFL
Text: DNA is labeled with Hoechst 33342.

T1 sequence (P08581 25-1390): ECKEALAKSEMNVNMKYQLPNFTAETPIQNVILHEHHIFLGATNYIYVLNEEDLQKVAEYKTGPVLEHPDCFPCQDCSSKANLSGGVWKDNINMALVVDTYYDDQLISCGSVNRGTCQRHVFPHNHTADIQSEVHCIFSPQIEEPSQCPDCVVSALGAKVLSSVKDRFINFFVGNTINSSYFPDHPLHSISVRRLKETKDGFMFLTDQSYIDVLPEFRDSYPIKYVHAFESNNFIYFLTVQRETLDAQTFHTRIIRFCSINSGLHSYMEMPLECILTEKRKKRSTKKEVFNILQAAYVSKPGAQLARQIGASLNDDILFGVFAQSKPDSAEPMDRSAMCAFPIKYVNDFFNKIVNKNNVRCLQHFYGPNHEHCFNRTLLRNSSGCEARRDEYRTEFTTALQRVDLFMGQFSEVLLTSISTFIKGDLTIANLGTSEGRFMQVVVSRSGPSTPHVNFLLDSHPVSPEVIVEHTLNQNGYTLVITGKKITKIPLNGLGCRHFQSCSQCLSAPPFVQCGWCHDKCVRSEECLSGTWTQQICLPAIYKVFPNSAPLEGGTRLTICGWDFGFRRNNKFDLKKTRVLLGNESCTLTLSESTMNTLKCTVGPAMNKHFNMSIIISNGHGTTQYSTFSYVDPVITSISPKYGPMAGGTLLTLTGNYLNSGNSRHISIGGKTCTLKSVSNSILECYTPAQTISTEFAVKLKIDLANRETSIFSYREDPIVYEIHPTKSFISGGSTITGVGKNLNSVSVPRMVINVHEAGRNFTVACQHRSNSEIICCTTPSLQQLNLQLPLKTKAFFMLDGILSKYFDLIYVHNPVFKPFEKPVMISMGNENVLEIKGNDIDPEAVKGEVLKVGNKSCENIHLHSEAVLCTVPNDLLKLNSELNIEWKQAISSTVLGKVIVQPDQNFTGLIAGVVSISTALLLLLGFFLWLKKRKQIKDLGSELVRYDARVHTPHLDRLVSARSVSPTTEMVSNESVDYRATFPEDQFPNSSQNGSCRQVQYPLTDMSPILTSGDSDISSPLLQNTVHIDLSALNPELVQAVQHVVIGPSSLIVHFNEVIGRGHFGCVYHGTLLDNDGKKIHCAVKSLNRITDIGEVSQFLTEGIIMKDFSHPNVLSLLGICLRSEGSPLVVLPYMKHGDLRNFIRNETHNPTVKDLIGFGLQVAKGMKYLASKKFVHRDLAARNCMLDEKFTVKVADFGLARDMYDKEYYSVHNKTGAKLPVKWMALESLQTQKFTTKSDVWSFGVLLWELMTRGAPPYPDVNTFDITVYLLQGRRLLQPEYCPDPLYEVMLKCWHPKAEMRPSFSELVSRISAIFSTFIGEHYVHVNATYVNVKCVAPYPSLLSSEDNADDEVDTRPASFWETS

| SMILES | phosphorylation of MET [1] | PI3K association with GAB1 and downstream activation of AKT and S6 [2] | phosphorylation of intended target RTK (P-MET) [3] | p-PDGFR [4] | P-PDGFRβ [5] |
| --- | --- | --- | --- | --- | --- |
| Cc1ccc(NC(=O)c2ccc(CN3CCN(C)CC3)cc2)cc1Nc1nccc(-c2cccnc2)n1 [Gleevec™, Imatinib mesylate] | decrease in phosphorylation of MET | did not significantly effect PI3K activation | – | – | – |
| Cc1[nH]c(/C=C2\C(=O)Nc3ccc(S(=O)(=O)N(C)c4cccc(Cl)c4)cc32)c(C)c1C(=O)N1CCN(C)CC1 [SU11274] | – | no discernable effect | effectively blocked phosphorylation | diminishes p-PDGFR | decrease in P-PDGFRβ |
